According to ChEMBL document CHEMBL1201862, “PubChem BioAssay data set” (2004):
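All cell lines were grown in 96-well plates and treated with compound for 48 hours. At the GI50, growth is halved.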 Active and inactive are the calls of the source. Cut-off read from the data, not from the text of the source: active = GI50 up to about 1.1 µM and inactive = higher.

How the values were obtained:
Assay in all cases: NCI tumour cell line growth inhibition, 48 h
ACHN = test system: ACHN
CCRF-CEM = test system: CCRF-CEM
DU-145 = test system: DU-145
EKVX = test system: EKVX
IGROV-1 = test system: IGROV-1
Malme-3M = test system: Malme-3M
OVCAR-8 = test system: OVCAR-8
SF-268 = test system: SF-268
SK-MEL-2 = test system: SK-MEL-2
SK-MEL-5 = test system: SK-MEL-5
SNB-19 = test system: SNB-19
SW-620 = test system: SW-620
U-251 = test system: U-251
MCF7 = test system: MCF7
OVCAR-3 = test system: OVCAR-3

SMILES	GI50 (ACHN)	GI50 (CCRF-CEM)	GI50 (DU-145)	GI50 (EKVX)	GI50 (IGROV-1)	GI50 (Malme-3M)	GI50 (OVCAR-8)	GI50 (SF-268)	GI50 (SK-MEL-2)	GI50 (SK-MEL-5)	GI50 (SNB-19)	GI50 (SW-620)	GI50 (U-251)	GI50 (MCF7)	GI50 (OVCAR-3)
COC(=O)c1sc2nc(Nc3ccccc3)/c(=N\c3ccccc3)sc2c1C	32.7 µM (inactive)	> 100 µM (inactive)	> 100 µM (inactive)	59.6 µM (inactive)	45.4 µM (inactive)	> 100 µM (inactive)	64.1 µM (inactive)	57.3 µM (inactive)	48.6 µM (inactive)	88.5 µM (inactive)	36.6 µM (inactive)	> 100 µM (inactive)	48.6 µM (inactive)		
Oc1cc(Br)cc2cc(Br)cnc12	1.48 µM (inactive)	1.83 µM (inactive)	3.68 µM (inactive)	3.85 µM (inactive)	1.14 µM (inactive)	2.4 µM (inactive)	2.96 µM (inactive)	1.1 µM (active)		2.48 µM (inactive)	3.33 µM (inactive)	2.24 µM (inactive)		5.35 µM (inactive)	1.58 µM (inactive)
CC(=O)O[C@H]1[C@@H](OC2CCCC2(c2ccccc2)c2ccccc2)O[N+]([O-])=C[C@@]12COCc1cc3c(cc12)OCO3 (stereo not given in full)	7.85 µM (inactive)	2.83 µM (inactive)	6.32 µM (inactive)	3.02 µM (inactive)	3.54 µM (inactive)		4.24 µM (inactive)	2.87 µM (inactive)	4.17 µM (inactive)	4.6 µM (inactive)	15.1 µM (inactive)	7.03 µM (inactive)	7.48 µM (inactive)	6.38 µM (inactive)	1.89 µM (inactive)
Cc1ccc(O)c(C(c2cc(C)ccc2O)c2cc([N+](=O)[O-])ccc2O)c1	13.2 µM (inactive)	13.6 µM (inactive)	17.3 µM (inactive)	15.2 µM (inactive)	10.3 µM (inactive)		3.66 µM (inactive)	7.62 µM (inactive)	13.7 µM (inactive)	38.6 µM (inactive)	> 10 µM (inactive)	24.3 µM (inactive)	15.7 µM (inactive)	14.5 µM (inactive)	12.4 µM (inactive)
COc1cccc(/C=N/NC(=O)CSCC(=O)N/N=C/c2cccc(OC)c2OC)c1OC	> 100 µM (inactive)		> 100 µM (inactive)	> 100 µM (inactive)	> 100 µM (inactive)	> 100 µM (inactive)	> 100 µM (inactive)	> 100 µM (inactive)	> 100 µM (inactive)	58.3 µM (inactive)	> 100 µM (inactive)	> 100 µM (inactive)	> 100 µM (inactive)	> 100 µM (inactive)	> 100 µM (inactive)
Cc1ccc(O)c(Cc2nc3ccccc3nc2-c2cccc(Cl)c2)c1	49 µM (inactive)		> 100 µM (inactive)	34.7 µM (inactive)	35.2 µM (inactive)	> 100 µM (inactive)	> 100 µM (inactive)	97.5 µM (inactive)	46.3 µM (inactive)	40.2 µM (inactive)	21 µM (inactive)	59 µM (inactive)	35.4 µM (inactive)	40.8 µM (inactive)	68.9 µM (inactive)
O=C1CNC(=O)/C(=C/c2c[nH]c3ccccc23)N1	> 100 µM (inactive)		> 100 µM (inactive)	> 100 µM (inactive)	> 100 µM (inactive)	> 100 µM (inactive)	> 100 µM (inactive)	> 100 µM (inactive)	> 100 µM (inactive)	> 100 µM (inactive)	> 100 µM (inactive)	> 100 µM (inactive)		> 100 µM (inactive)	> 100 µM (inactive)
